Reference: ChEMBL document CHEMBL3045455, “Design, synthesis and evaluation of novel indomethacinflavonoid mutual prodrugs as safer NSAIDs” (Med Chem Res, 2011)

How the values were obtained:
Mus musculus [1] = assay: Analgesic activity in Mus musculus LACCA (mouse) assessed as inhibition of acetic acid-induced writhing at 10 mg/kg, po measured during 20 min period beginning 3 min after acetic acid challenge
Rattus norvegicus [2] = assay: Anti-inflammatory activity in carrageenan-induced paw edema Rattus norvegicus Sprague-Dawley (rat) model assessed as increase in paw volume at 12 mg/kg, po measured after 2 hr; assay type: functional
Rattus norvegicus [3] = assay: Anti-inflammatory activity in carrageenan-induced paw edema Rattus norvegicus Sprague-Dawley (rat) model assessed as increase in paw volume at 12 mg/kg, po measured after 4 hr; assay type: functional
Rattus norvegicus [4] = assay: Gastrointestinal toxicity in Rattus norvegicus Sprague-Dawley (rat) assessed as ulcer index at 48 mg/kg, po measured after 8 hr (reference value: 0.2 +/- 0.06); assay type: organism-based; set-up: dose 48 mg/kg, route oral; settings: in vivo
Rattus norvegicus [5] = assay: Anti-inflammatory activity in carrageenan-induced paw edema Rattus norvegicus Sprague-Dawley (rat) model assessed as increase in paw volume at 23.95 mg/kg, po measured after 2 hr; assay type: functional
Rattus norvegicus [6] = assay: Anti-inflammatory activity in carrageenan-induced paw edema Rattus norvegicus Sprague-Dawley (rat) model assessed as increase in paw volume at 23.95 mg/kg, po measured after 4 hr; assay type: functional
Mus musculus [7] = assay: Analgesic activity in Mus musculus LACCA (mouse) assessed as inhibition of acetic acid-induced writhing at 17.1 mg/kg, po measured during 20 min period beginning 3 min after acetic acid challenge
Rattus norvegicus [8] = assay: Gastrointestinal toxicity in Rattus norvegicus Sprague-Dawley (rat) assessed as ulcer index at 82 mg/kg, po measured after 8 hr (reference value: 0.2 +/- 0.06); assay type: organism-based; set-up: dose 82 mg/kg, route oral; settings: in vivo
Rattus norvegicus [9] = assay: Gastrointestinal toxicity in Rattus norvegicus Sprague-Dawley (rat) assessed as ulcer index at 83.98 mg/kg, po measured after 8 hr (reference value: 0.2 +/- 0.06); assay type: organism-based; set-up: dose 83.98 mg/kg, route oral; settings: in vivo
Rattus norvegicus [10] = assay: Anti-inflammatory activity in carrageenan-induced paw edema Rattus norvegicus Sprague-Dawley (rat) model assessed as increase in paw volume at 20.52 mg/kg, po measured after 2 hr; assay type: functional
Mus musculus [11] = assay: Analgesic activity in Mus musculus LACCA (mouse) assessed as inhibition of acetic acid-induced writhing at 17.49 mg/kg, po measured during 20 min period beginning 3 min after acetic acid challenge
Rattus norvegicus [12] = assay: Anti-inflammatory activity in carrageenan-induced paw edema Rattus norvegicus Sprague-Dawley (rat) model assessed as increase in paw volume at 20.52 mg/kg, po measured after 4 hr; assay type: functional

SMILES: COc1ccc2c(c1)c(CC(=O)O)c(C)n2C(=O)c1ccc(Cl)cc1 [INDOMETHACIN]
- inhibition in vivo at 10 mg/kg (Mus musculus [1]): 74.2%
- Activity (Rattus norvegicus [2]): 48.35%
- Activity (Rattus norvegicus [3]): 57.39%
- UI (Rattus norvegicus [4]): 5.54

SMILES: COc1ccc2c(c1)c(CC(=O)Oc1cc(O)c3c(c1)O[C@H](c1ccc(O)cc1)CC3=O)c(C)n2C(=O)c1ccc(Cl)cc1 [INDOMETHACIN-NARINGENIN]
- Activity (Rattus norvegicus [5]): 39.13%
- Activity (Rattus norvegicus [6]): 40.46%
- inhibition in vivo at 17.1 mg/kg (Mus musculus [7]): 86.7%
- UI (Rattus norvegicus [8]): 0.62

SMILES: COc1ccc2c(c1)c(CC(=O)Oc1cc(O)c3c(c1)O[C@H](c1ccc(OC)c(O)c1)CC3=O)c(C)n2C(=O)c1ccc(Cl)cc1 [INDOMETHACIN-HESPERTIN]
- UI (Rattus norvegicus [9]): 0.54
- Activity (Rattus norvegicus [10]): 37.78%
- inhibition in vivo at 17.49 mg/kg (Mus musculus [11]): 89.4%
- Activity (Rattus norvegicus [12]): 38.22%
